# Test results as given in patent US10308617B2, “Triazole benzamide derivatives and the compositions and methods of treatment regarding the same” (An2H Discovery Limited, priority 2016, dated 2019).
# Target: Parkin (Homo sapiens, UniProt O60260)
# Test: Parkin pUB Auto-ubiquitinylation Assay (TR-FRET)
# Type: biochemical
# Details: Parkin activation, pUb activated Parkin; read-out: Auto-ubiq EC50 (μM) [Example 3]
# From the text: A Parkin pUB Auto-ubiquitinylation Assay is used to evaluate a compound's potency to activate Parkin's ability to Auto-ubiquitinylate itself.
# The principle of this assay is that the E3 Ligase Parkin catalyzes the transfer of Ubiquitin to target proteins, but also has the ability to auto-ubiquitinylate itself. The phospho-Ubiquition (pUb) added to the assay alters the Parkin to a state where small molecule activators can enable the Parkin to auto-ubiquitinylate though the E1-E2 cascade reaction. The use of a Eu cryptate Ubiquition and anti 6His-d2 that binds to the His tagged Parkin will give a signal when the Eu cryptate Ubiquition is auto-ubiquitinylate onto the Parkin which can be monitored by TR-FRET.
# Similar to the Activity-based probe assay in Example 2, screening for activating compounds can be distinguished from the controls as follows: • 100% activation signal=pUb activated Parkin+40 nM control activator in DMSO. • 0% activation signal=pUb activated Parkin+DMSO only. • Parkin activators can be identified by an increase of the 0% activation signal TR-FRET signal. Materials: • Assay Plate: White 384 well plate (Corning 3572) • Enzyme 1: E1 (Ubiquitin-activating enzyme/UBE1 Boston Biochem E-305) • Enzyme 2: E2 (UBcH7/Ube2L3 Boston Biochem E2-640) • Enzyme 3: Parkin-His tagged 203 μM (10.5 mg/ml) • pUb: Phospho-Ubiquitin (S65) (Boston Biochem U-102) • Eu Cryptate Reagent: Ubiquitin Eu (CisBio 61UBIKLA) • DMSO: DMSO (Sigma-34869-2.5L) • Reaction Buffer: 50 mM HEPES, 50 mM NaCl, 1 mM MgCl2, 0.005% Tween 20, 0.1% PF-127 (Fisher Scientific 50-310-494), pH 8.5 • Detection Buffer: 50 mM HEPES, 50 mM NaCl, 800 mM KF, 5 mM EDTA, 0.005% Tween 20, 0.1% PF-127, pH 8.5 • Detection Reagent Z: 13.4 nM Anti-6His-d2 in detection buffer • d2 Reagent: Anti-6His-d2 (CisBio 61HISDLA)
# Enzyme Reaction (15 min pre-incubation with Parkin, pUb and activator only) • Parkin: 196 nM • pUb: 196 nM • DMSO: 1% DMSO • E1: 5 nM • E2: 50 nM • Ubiquitin Eu: 8.8 nM • Reaction time: 120 minutes • Temperature: 22° C. • Total volume: 10 μl reaction
# Take 10 μl of Enzyme Reaction above and add 10 μl detection Reagent Z under the following conditions:
# Assay Procedure: • 1) Load assay plate wells with 4.9 μl 400.0 nM Parkin, 400 nM pUb in reaction buffer by use of Eppendorf 12-channel pipette. • 2) Deliver 0.1 μl 100× activator candidates in DMSO by use of Echo 555 compound dispenser. Highest 100× concentration=100 μm and then twofold dilutions. Add each compound and control in duplicate wells. • 3) Spin 1000 rpm, 2 minutes, at room temp. • 4) Incubate plate for 15 minutes at room temp. • 5) Add 5 μl 10 nM E1, 100 nM E2, 17.6 nM Ubiquitin Eu and 2 mM ATP in Reaction Buffer by use of Eppendorf 12-channel pipette. • 6) Spin 1000 rpm, 2 minutes, at room temp. • 7) Incubate plate for 120 minutes at room temp. • 8) Add 10 μl 13.4 nM anti his d2 in detection buffer by use of Eppendorf 12-channel pipette. • 9) Spin 1000 rpm, 2 minutes, at room temp. • 10) Incubate plate for 120 minutes at room temp. • 11) Read plates on Perkin Elmer Envision instrument with the following parameters: • LANCE dual laser protocol loaded into the Envision® software • Top Mirror: LANCE/DELFIA Duel/Bias (Bar code 446) • Emission Filter: APC 665 EM (Bar code 205) • 2nd Emission Filter: Europium 615 EM (Bar code 203) • Read 655 nm (channel 1) and 615 nm (channel 2) wavelengths on Envision®
# Data Analysis: The Data can be read in CSV files. There are two tables in those CSV files, which are the values of 655 nm (channel 1) and 615 nm (channel 2) wavelengths respectively. The data is converted to an HTRF Ratio=(Channel 1/Channel 2)*10,000
# The average of all the 0 uM controls (DMSO only)=BKGD (Background—0% activation). Subtract BKGD from each HTRF Ratio value=HTRF-BKGD. The average of all the […] control activator in DMSO controls=Max (100% activation). The following equation is then used to calculate % Activation for each well/candidate as follows: % Activation=(HTRF-BKGD/Max)*100. […]
# Sequence of Parkin (O60260 whole entry, other chains not shown): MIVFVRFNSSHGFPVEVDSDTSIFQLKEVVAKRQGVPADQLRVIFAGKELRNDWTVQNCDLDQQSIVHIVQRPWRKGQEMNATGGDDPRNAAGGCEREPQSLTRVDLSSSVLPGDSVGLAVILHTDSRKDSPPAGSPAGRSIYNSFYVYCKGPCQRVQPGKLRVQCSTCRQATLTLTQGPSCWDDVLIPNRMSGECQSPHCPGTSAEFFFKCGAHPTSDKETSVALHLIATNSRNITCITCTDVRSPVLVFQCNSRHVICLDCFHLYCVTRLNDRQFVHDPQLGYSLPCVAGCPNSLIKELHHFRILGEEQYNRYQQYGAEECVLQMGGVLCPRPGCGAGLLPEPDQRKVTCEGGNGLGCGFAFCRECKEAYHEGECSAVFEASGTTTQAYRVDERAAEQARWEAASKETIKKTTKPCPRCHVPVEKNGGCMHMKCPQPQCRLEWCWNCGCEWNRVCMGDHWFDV
row,SMILES,EC50 [µM]
1,O=C(Nc1nc(Nc2nccc3ccccc23)n(-c2ccccc2)n1)c1ccccc1 [U],> 40
2,CN(C(=O)c1ccccc1)c1nc(NC(=O)c2ccccc2)nn1-c1ccccc1 [V],> 40
3,CCN(CC)c1nc(Nc2nc(NC(=O)c3ccccc3)nn2-c2ccccc2)c2ccccc2n1 [W],> 40
4,CCN(CC)c1nc(Nc2nc(NC(=O)c3ccccc3)nn2-c2ccccc2)nc2ccccc12 [X],> 40
5,O=C(Nc1nc(Nc2ncnc3ccccc23)n(-c2ccccc2)n1)c1ccco1 [Z],> 40

# Next, values leading:
row,EC50 [µM],SMILES
1,> 40,CN(C(=O)c1ccccc1)c1nc(NC(=O)c2ccccc2)n(-c2ccccc2)n1 [G]
2,> 40,O=C(Nc1nc(Nc2ncnc3ccccc23)nn1-c1ccccc1)c1ccccc1 [I]
3,> 40,CN(C(=O)c1ccccc1)c1nc(N(C)C(=O)c2ccccc2)n(-c2ccccc2)n1 [J]
4,> 40,Cc1ccccc1-n1nc(NC(=O)c2ccccc2)nc1NC(=O)c1ccccc1 [M]
5,> 40,O=C(Nc1nc(-c2ccccn2)nn1-c1ccccc1)c1ccccc1 [T]
